Details: formulations up to a concentration of 0.3 M STS; ocular route

With `O=S(O)(O)=S` [STS, sodium thiosulfate] the “adverse findings (local tolerance and toxicity)” value was “did not show adverse findings”.

— patent publication US20230092648A1, “COMBINATION CONTAINING A DUOCARMYCIN DERIVATIVE-COMPRISING ANTIBODY-DRUG CONJUGATE AND THIOSULFATE” (BYONDIS B.V., priority 2020, published 2023)
